Source: US6878713B2, “Generation triple-targeting, chiral, broad-spectrum antimicrobial 7-substituted piperidino-quinolone carboxylic acid derivatives, their preparation, compositions and use as medicaments” (Wockhardt Limited, priority 2001, dated 2005)
Values after ≈ are worked out from the molar mass of the structure shown. Read-outs that look alike come from different tables or passages of the source.

What was measured:
[1] = tested on: Fluoroquinolone-Resistant Strains; experiment: In-vitro antimicrobial test (MIC, two-fold serial agar dilution, NCCLS), Table 18; type: cell-based
Experimental: (§1) The test method was in accordance with the standard NCCLS protocol (Methods for Dilution Antimicrobial Susceptibility Tests for Bacteria that grow Aerobicially, Approved Standards, M7-A5, Fifth Edition, January 2000).
(§2) The antibacterial activities (minimum inhibitory concentration: MIC, […]) were determined by using the two-fold serial agar dilution method recommended by NCCLS. The media used for preculture and main culture were Tryptic Soya broth (Difco) and Mueller Hinton medium (Difco), respectively. The Mueller Hinton agar was supplemented with 5% sheep blood for streptococci. Overnight cultures were diluted with buffered saline (pH 7.2) to the final cell density of 5×10^6-10^7 CFU/ml, and each bacterial suspension was applied with a replicator (Denley's multipoint inoculator, UK) onto a series of Mueller-Hinton agar plates containing antibacterial agents at various concentrations. Final inoculum was approximately 10^4 CFU/spot. The plates were incubated for 18 hrs at 37° C. The MIC was defined as the lowest concentration of an antibacterial agent that inhibits the development of visible microbial growth on agar.

[2] = tested on: Multidrug-Resistant (MDR) Pneumococcal Infections; experiment: In-vivo antimicrobial test, systemic infection model (mouse septicemia), Table 22; set-up: species or system Swiss male and female mice; settings: oral dosing 1 hour and 5 hours post-infection, survival on day 7, strain resistant to β-lactams, macrolides and fluoroquinolones; for ED50 p.o., MDR S. pneumoniae 718: hydrochloride; for ED50: Streptococcus pneumoniae, po, read-out: ED50 p.o., MDR S. pneumoniae 718
Experimental: The in vivo efficacy was studied through mouse septicemia model of infection in Swiss male and female mice (4 weeks old, 20+2 g weight) using 6 animals in each group. Infective organisms were inoculated intraperitonially. Compound were administered by oral route 1 hour and 5 hours post-infection. […] Appropriate comparators were included in the study.

J 744 (mouse macrophage) = experiment: Cytotoxicity test (Alamar blue), J 744 cells, Table 23; type: cell-based; settings: 3 hrs drug exposure, further 96 hrs incubation
Experimental: Compounds were evaluated for their cytotoxic potential against two celllines viz. […] Cytotoxic drugs inhibit this reaction resulting into blue coloured well. Minimum drug concentration inhibiting Alamar blue color change i.e. resulting into blue coloured wells for a given drug is considered cytotoxic concentration.

[3] = tested on: V79 (Chinese Hamster Lung); experiment: Cytotoxicity test (Alamar blue), V79 cells, Table 23; type: cell-based; settings: 3 hrs drug exposure, further 96 hrs incubation
Experimental: Compounds were evaluated for their cytotoxic potential against two […] viz. […] Cells were grown for 3-4days in a culture flask using D-MEM (Dulbecco's Modified Eagle. […] Freshly grown cells were distributed in microtiter plates at a cell density of 10^5-10^6 cells/well and allowed to […] form monolayer by incubating the microtiter plate at […] for 24 hrs. […] Following 3 hrs. of drug exposure, cell were washed with D-MEM and incubated further for 96 hrs. Cytotoxic effects of drugs were monitored through daily microscopic observation and by ascertaining the metabolic status through redox indicator Alamar blue. Healthy actively metabolising cells bring about colour change of Alamar blue from blue to pink within an overnight incubation. Cytotoxic drugs inhibit this reaction resulting into blue coloured well. Minimum drug concentration inhibiting Alamar blue color change i.e. resulting into blue coloured wells for a given drug is considered cytotoxic concentration.

[4] = tested on: Fluoroquinolone Sensitive Strains; experiment: In-vitro antimicrobial test (MIC, two-fold serial agar dilution, NCCLS), Table 17; type: cell-based
Experimental: as §1, §2

MRSA 5027 = experiment: Resistance to resistance development (sequential passages through drug-containing media); type: cell-based; settings: Staphylococcus aureus
[5] = tested on: Trovafloxacin-Resistant and Vancomycin-Resistant Enterococci; experiment: In-vitro antimicrobial test (MIC, two-fold serial agar dilution, NCCLS), Table 19; type: cell-based
Source text: The comparative antimicrobial activity of representative compounds, of the invention and reference compounds against various sensitive and resistant microorganisms is given in Tables 17 to 20. The test method was in accordance with the standard NCCLS protocol (Methods for Dilution Antimicrobial Susceptibility Tests for Bacteria that grow Aerobicially, Approved Standards, M7-A5, Fifth Edition, January 2000).
as §2

[6] = Streptococcus mitis, Cipro^R S. mitis 938
[7] = Enterococcus faecalis, ATCC29212, E. faecalis ATCC 29212
[8] = Escherichia coli, ATCC25922, E. coli ATCC 25922
[9] = Pseudomonas aeruginosa, P. aeruginosa 27853
[10] = S. sanguis ATCC 10556 (Viridans Streptococci group)
[11] = Staphylococcus aureus, ATCC 25923 / MSSA, MSSA ATCC 25923
[12] = Streptococcus pneumoniae, ATCC49619, S. pneumoniae ATCC 49619
[13] = Staphylococcus aureus, MRSA, MRSA 032
[14] = Streptococcus pneumoniae, FQ^R S. pneumoniae 718
[15] = read-out: MIC against MRSA 5027, initially
[16] = Staphylococcus epidermidis, trovafloxacin-resistant methicillin-resistant S. epidermidis (MRSE) 110, 18 hrs at 37° C, read-out: MICs, Trova-Resist MRSE 110
[17] = vancomycin-resistant Enterococcus faecium (VRE) 336, 18 hrs at 37° C, read-out: MICs, VRE 336

MIC [4, 9] [mg/L]	MIC ([1]; Cipro^R S. sanguis 941) [mg/L]	melting point [°C]	SMILES	MIC [1, 6] [mg/L]	Cytotoxic concentration, J 744 Macrophage (J 744 (mouse macrophage)) [µg/mL]	MIC [4, 7] [mg/L]	MIC [4, 8] [mg/L]	MIC [4, 10] [mg/L]	MIC [4, 11] [mg/L]	MIC [4, 12] [mg/L]	MIC [1, 13] [mg/L]	MIC [1, 14] [mg/L]	ED50 [2] [mg/kg]	Cytotoxic concentration, V 79 CHL [3] [µg/mL]	other results
–	–	–	COc1c(N2CCC(N)C(C)(C)C2)c(F)cc2c(=O)c(C(=O)O)cn(C3CC3)c12.Cl (single isomer, unassigned; (+)) [Compound 22, (+)-1-Cyclopropyl-6-fluoro-1,4-dihydro-8-methoxy-7-(4-amino-3,3-dimethyl-1-piperidinyl)-4-oxo-quinoline-3-carboxylic acid hydrochloride]	0.8	>1000	–	–	–	–	–	–	–	–	–	MICs ([1]; Cipro^R S. sanguis 941, hydrochloride): 0.2 µg/mL; MICs ([1]; MRSA 032): 0.8 µg/mL; ED50 p.o., MDR S. pneumoniae 718 [2]: 20 mg/kg; Cytotoxic concentration, V 79 CHL ([3]; hydrochloride): 1000 µg/mL
3.12 (≈ 8.63 µM)	12.5 (≈ 34.6 µM)	–	C[C@H]1COc2c(N3CCN(C)CC3)c(F)cc3c(=O)c(C(=O)O)cn1c23 [S-(−)-levofloxacin, reference compound]	25 (≈ 69.2 µM)	–	0.8 (≈ 2.21 µM)	0.025 (≈ 0.0692 µM)	1.56 (≈ 4.32 µM)	0.2 (≈ 0.553 µM)	0.8 (≈ 2.21 µM)	6.25 (≈ 17.3 µM)	12.5 (≈ 34.6 µM)	> 100	–	–
12.5 (≈ 33.5 µM)	3.12 (≈ 8.36 µM)	223 to 225	Cc1c(N2CC[C@@H](N)[C@H](C)C2)c(F)cc2c(=O)c(C(=O)O)cn(C3CC3)c12 (single isomer, unassigned) [Compound 97, trans-1-Cyclopropyl-6-fluoro-1,4-dihydro-8-methyl-7-(4-amino-3-methyl-1-piperidinyl)-4-oxo-quinoline-3-carboxylic acid]	3.12 (≈ 8.36 µM)	>1000	0.2 (≈ 0.536 µM)	0.4 (≈ 1.07 µM)	0.2 (≈ 0.536 µM)	0.012 (≈ 0.0321 µM)	0.1 (≈ 0.268 µM)	0.8 (≈ 2.14 µM)	3.12 (≈ 8.36 µM)	–	>1000	–
–	–	–	N[C@@H]1[C@H]2CN(c3nc4c(cc3F)c(=O)c(C(=O)O)cn4-c3ccc(F)cc3F)C[C@@H]12 [Trovafloxacin]	–	500	–	–	–	–	–	–	–	–	–	MIC (MRSA 5027; [15]): 0.4 mg/L (≈ 0.961 µM); MIC (MRSA 5027; read-out: MIC against MRSA 5027 after 10 passages in drug containing medium): 50 mg/L (≈ 120 µM)
3.12 (≈ 8.33 µM)	0.4 (≈ 1.07 µM)	206 to 210	Cc1c(N2CC[C@H](O)[C@H](C)C2)c(F)cc2c(=O)c(C(=O)O)cn(C3CC3)c12 (relative stereo) [Compound 93, cis-1-Cyclopropyl-6-fluoro-8-methyl-7-(4-hydroxy-3-methyl-1-piperidinyl)-1,4-dihydro-4-oxo-quinoline-3-carboxylic acid]	0.4 (≈ 1.07 µM)	>1000	0.05 (≈ 0.134 µM)	0.2 (≈ 0.534 µM)	0.05 (≈ 0.134 µM)	0.003 (≈ 0.00801 µM)	0.025 (≈ 0.0668 µM)	0.2 (≈ 0.534 µM)	0.8 (≈ 2.14 µM)	–	>1000	MIC [5, 16]: 0.4 mg/L (≈ 1.07 µM); MIC [5, 17]: 3.12 mg/L (≈ 8.33 µM)
–	–	–	COc1c(N2CCC(N)C(C)(C)C2)c(F)cc2c(=O)c(C(=O)O)cn(C3CC3)c12.Cl (single isomer, unassigned; (-)) [Compound 26, (−)-1-Cyclopropyl-6-fluoro-1,4-dihydro-8-methoxy-7-(4-amino-3,3-dimethyl-1-piperidinyl)-4-oxo-quinoline-3-carboxylic acid hydrochloride]	–	>1000	–	–	–	–	–	0.8	0.8	–	–	ED50 p.o., MDR S. pneumoniae 718 [2]: 50 mg/kg; Cytotoxic concentration, V 79 CHL ([3]; hydrochloride): >1000 µg/mL
–	–	–	COc1c(N2C[C@@H]3CCCN[C@@H]3C2)c(F)cc2c(=O)c(C(=O)O)cn(C3CC3)c12 [Moxifloxacin, reference compound]	–	–	0.2 (≈ 0.498 µM)	0.05 (≈ 0.125 µM)	0.4 (≈ 0.996 µM)	0.05 (≈ 0.125 µM)	0.2 (≈ 0.498 µM)	–	–	> 100	–	MIC (MRSA 5027; [15]): 0.4 mg/L (≈ 0.996 µM)
–	–	–	COc1c(N2CCNC(C)C2)c(F)cc2c(=O)c(C(=O)O)cn(C3CC3)c12 (stereo not shown) [Gatifloxacin]	–	–	–	–	–	–	–	–	–	> 100	–	–
1.56	3.12	262 to 265	Cc1c(N2CC[C@@H](N)[C@H](C)C2)c(F)cc2c(=O)c(C(=O)O)cn(C3CC3)c12.Cl (single isomer, unassigned) [Compound 98, trans-1-Cyclopropyl-6-fluoro-1,4-dihydro-8-methyl-7-(4-amino-3-methyl-1-piperidinyl)-4-oxo-quinoline-3-carboxylic acid hydrochloride]	1.56	1000	0.1	0.006	0.025	0.025	0.05	1.56	1.56	–	250	–

SMILES	MIC [4, 9] [mg/L]	MIC ([1]; Cipro^R S. sanguis 941) [mg/L]	melting point [°C]	MIC [1, 6] [mg/L]	Cytotoxic concentration, J 744 Macrophage (J 744 (mouse macrophage)) [µg/mL]	MIC [4, 7] [mg/L]	MIC [4, 8] [mg/L]	MIC [4, 10] [mg/L]	MIC [4, 11] [mg/L]	MIC [4, 12] [mg/L]	MIC [1, 13] [mg/L]	MIC [1, 14] [mg/L]	ED50 [2] [mg/kg]	Cytotoxic concentration, V 79 CHL [3] [µg/mL]	other results
Cc1c(N2CCC(N)C(C)(C)C2)c(F)cc2c(=O)c(C(=O)O)cn(C3CC3)c12.Cl (racemic) [Compound 102, (±)-1-Cyclopropyl-6-fluoro-1,4-dihydro-8-methyl-7-(4-amino-3,3-dimethyl-1-piperidinyl)-4-oxo-quinoline-3-carboxylic acid hydrochloride]	3.12	1.56	–	1.56	1000	0.05	0.025	0.025	0.025	0.025	0.8	0.8	30	750	–
Cc1c(N2CC[C@@H](O)[C@H](C)C2)c(F)cc2c(=O)c(C(=O)O)cn(C3CC3)c12 (relative stereo) [Compound 94, trans-1-Cyclopropyl-6-fluoro-8-methyl-7-(4-hydroxy-3-methyl-1-piperidinyl)-1,4-dihydro-4-oxo-quinoline-3-carboxylic acid]	3.12 (≈ 8.33 µM)	0.4 (≈ 1.07 µM)	–	0.4 (≈ 1.07 µM)	>1000	0.1 (≈ 0.267 µM)	0.2 (≈ 0.534 µM)	0.025 (≈ 0.0668 µM)	0.003 (≈ 0.00801 µM)	0.025 (≈ 0.0668 µM)	0.2 (≈ 0.534 µM)	0.8 (≈ 2.14 µM)	–	>1000	MIC [5, 16]: 0.4 mg/L (≈ 1.07 µM); MIC [5, 17]: 3.12 mg/L (≈ 8.33 µM)
Cc1c(N2CC[C@H](N)[C@H](C)C2)c(F)cc2c(=O)c(C(=O)O)cn(C3CC3)c12.Cl (relative stereo) [Compound 100, cis-1-Cyclopropyl-6-fluoro-1,4-dihydro-8-methyl-7-(4-amino-3-methyl-1-piperidinyl)-4-oxo-quinoline-3-carboxylic acid hydrochloride]	3.12	3.12	255 to 260	1.56	1000	0.1	0.0012	0.025	0.025	0.05	1.56	1.56	30	125	–
